Three sequences from paper PMC3867523 (Journal of hepatology, 2013) can be followed below.

Usually IC50 stands for the concentration needed to halve the response being measured.

Ends that are not written are not given here.

The target in this experiment is HLA-B*27:05 (Homo sapiens, UniProt P01889, D138H/D201E/E176V/E204Q/G107R/H137Y/K202T/N104T/N87E/Q56L/Q94K/R106L/R155S/R180L/S101D/S121N/S48T/Y140D/Y33H/Y91C). Kind of experiment: biochemical. The experiment is classed as binding.
Regarding ARHTPVNSW [NS5B-2820], inhibition was half-maximal at 338 nM (IC50). This counts as sub-micromolar.
Then ARMILMTHF [NS5B-2841], with 1.1 nM; and GRAAICGKY [NS5B-2936], with 1 nM.
